{
  "source": "patent US4956463A",
  "about": "“Pyrimidone compound and pharmaceutically acceptable salts thereof” (Ikeda Mohando Company, Ltd., priority 1987, dated 1990)",
  "key": {"[1]": {"tested_on": "Gastric Acid Secretion Accelerated by Histamine in Pylorus-ligated Rats", "experiment": "Inhibitory Effect on Gastric Acid Secretion by Histamine in Pylorus-ligated Rats", "type": "in vivo, male Wister rat", "conditions": "dose 2 mg/kg s.c.; histamine 3 mg/kg s.c. 30 min later; average of 5 measurements; ** P < 0.01 vs control group (all values marked **)", "protocol": "A male Wister rat having a body weight of about 160 g and which had not fed for 24 hours was anesthetized by an intraperitonea dose of 1.2 g/kg of urethane. After ligating of pylorus and esophagus, gaster anterior was incised and fitted with a double polyethylene wall cannula. The wall of the stomach was rinsed with saline (5 ml each) at 30 minutes intervals, and the amount of gastric acid present in the rinsing solution were determined by titration technique.\nThe basal amount of secreted gastric acid was initially measured three times, then 2 mg/kg of each of compounds of the invention was administered subcutaneously and 3 mg/kg of histamine was subcutaneously administered after the lapse of an additional 30 minutes.\nThe quantity of gastric acid secreted after the operation was measured continuously for 3 hours. Within that measurement interval, three time points at which the increase in acid secretion reached a maximum level were selected, and the average quantity of gastric acid secreted at those time points was taken as the increase in acid secretion, which was compared with the increase in acid secretion of the control group to calculate the percent inhibition for secretion of gastric acid. [formula]"}, "Ethanol-Induced Ulcer": {"tested_on": "Ethanol-Induced Ulcer", "experiment": "Inhibitory Effect on Ethanol-Induced Ulcer", "type": "in vivo, male Wister rats", "conditions": "for inhibition in vivo at 30 mg/kg: Rattus norvegicus, po, 1 h, read-out: I.R. of Ethanol-Induced Ulcer", "protocol": "(B) Inhibitory Effect of the Compounds of the Present Invention on Ethanol-Induced Ulcer\nThis test was performed in the manner similar to the method of Robert A. (Gastroenterology, 1975, Vol. 69, pp. 1045-1047). 30 mg/kg of the compound of this invention was orally administered to male Wister rats having a body weight of about 160 g after 24 hours fasting and after additional 30 minutes, 1 ml/animal of 100% ethanol was orally administered One hour after, the stomach was dissected out and was fixed with formalin, Then, the length of the hemorrhagic ulcers generated at the front portion of the stomach was measured by means of a microscope and these were defined as the coefficient of ulcer (U.C.). [formula]\nThe results obtained are listed in Table II in which the values found are expressed in the average of 5 measurements."}, "[2]": {"conditions": "30 mg/kg p.o., 100% ethanol 1 ml/animal p.o. 30 min later, average of 5 measurements, ** P < 0.01 vs control group (Ex. 18 and Cimetidine unmarked)"}},
  "note": "Read-outs that look alike come from different tables or passages of the source.",
  "data": [
    {"smiles": "CN/C(=N/CCSCc1nc[nH]c1C)NC#N", "note": "[Cimetidine, reference compound]", "values": [
      {"measurement": "Gastric Acid Secretion in Rats, Rate of inhibition", "setting": "[1]", "result": 70, "unit": "%"},
      {"measurement": "inhibition in vivo at 30 mg/kg", "setting": "Ethanol-Induced Ulcer", "result": -22.4, "unit": "%"},
      {"measurement": "inhibitory effect for damages with ethanol", "setting": "Ethanol-Induced Ulcer; in words, as shown in Table II", "result": "not observed"}
    ]},
    {"smiles": "Cc1[nH]c(NC/C=C\\COc2cc(CN3CCCCC3)ccn2)nc(=O)c1C", "note": "[Ex. 1, 5,6-Dimethyl-2-[4-<4-(1-piperidinomethyl)-pyridyl-2-oxy>-cis-2-butenylamino]-4-(1H)-pyrimidone]", "values": [
      {"measurement": "Gastric Acid Secretion in Rats, Rate of inhibition", "setting": "[1]", "result": 59, "unit": "%"},
      {"measurement": "inhibition in vivo at 30 mg/kg", "setting": "Ethanol-Induced Ulcer; [2]", "result": 65, "unit": "%"}
    ]},
    {"smiles": "Cc1[nH]c(NC/C=C\\COc2cccc(CN3CCCCC3)c2)nc(=O)c1C", "note": "[Ex. 3, 5,6-Dimethyl-2-[4-<3-(1-piperidinomethyl)-phenoxy>-cis-2-butenylamino]-4-(1H)-pyrimidone]", "values": [
      {"measurement": "Gastric Acid Secretion in Rats, Rate of inhibition", "setting": "[1]", "result": 70, "unit": "%"},
      {"measurement": "inhibition in vivo at 30 mg/kg", "setting": "Ethanol-Induced Ulcer; [2]", "result": 80, "unit": "%"}
    ]},
    {"smiles": "CCCCCCCc1c(C)[nH]c(NC/C=C\\COc2cccc(CN3CCCCC3)c2)nc1=O", "note": "[Ex. 7]", "values": [
      {"measurement": "inhibition in vivo at 30 mg/kg", "setting": "Ethanol-Induced Ulcer; [2]", "result": 61, "unit": "%"}
    ]},
    {"smiles": "CCCCCCCCCCCCc1c(C)[nH]c(NC/C=C\\COc2cccc(CN3CCCCC3)c2)nc1=O", "note": "[Ex. 10, 5-Dodecyl-6-methyl-2-[4-<3-(1-piperidinomethyl)-phenoxy>-cis-2-butenylamino]-4-(1H)-pyrimidone]", "values": [
      {"measurement": "Gastric Acid Secretion in Rats, Rate of inhibition", "setting": "[1]", "result": 36, "unit": "%"},
      {"measurement": "inhibition in vivo at 30 mg/kg", "setting": "Ethanol-Induced Ulcer; [2]", "result": 73, "unit": "%"}
    ]},
    {"smiles": "Cc1[nH]c(NC/C=C\\COc2cc(CN3CCCCC3)ccn2)nc(=O)c1CCc1ccccc1", "note": "[Ex. 11, 5-Phenethyl-6-methyl-2-[4-<4-(1-piperidinomethyl)-pyridyl-2-oxy>-cis-2-butenylamino]-4-(1H)-pyrimidone]", "values": [
      {"measurement": "Gastric Acid Secretion in Rats, Rate of inhibition", "setting": "[1]", "result": 47, "unit": "%"},
      {"measurement": "inhibition in vivo at 30 mg/kg", "setting": "Ethanol-Induced Ulcer; [2]", "result": 79, "unit": "%"}
    ]},
    {"smiles": "Cc1[nH]c(NC/C=C\\COc2cc(CN3CCCCC3)ccn2)nc(=O)c1Cc1ccccc1", "note": "[Ex. 13]", "values": [
      {"measurement": "inhibition in vivo at 30 mg/kg", "setting": "Ethanol-Induced Ulcer; [2]", "result": 56, "unit": "%"}
    ]},
    {"smiles": "Cc1[nH]c(NC/C=C\\COc2cccc(CN3CCCCC3)c2)nc(=O)c1Cc1ccccc1", "note": "[Ex. 14, 5-Benzyl-6-methyl-2-[4-<3-(I-piperidinomethyl)-phenoxy>-cis-2-butenylamino]-4-(1H)-pyrimidone]", "values": [
      {"measurement": "inhibition in vivo at 30 mg/kg", "setting": "Ethanol-Induced Ulcer; [2]", "result": 87, "unit": "%"}
    ]},
    {"smiles": "Cc1[nH]c(NC/C=C\\COc2cc(CN3CCCCC3)ccn2)nc(=O)c1Cc1ccc2c(c1)OCO2", "note": "[Ex. 16, 5-(3,4-methylenedioxy)-benzyl-6-methyl-2-[4-<4-(1-piperidinomethyl)-pyridyl-2-oxy>-cis-2-butenylamino]-4-(1H)-pyrimidone]", "values": [
      {"measurement": "inhibition in vivo at 30 mg/kg", "setting": "Ethanol-Induced Ulcer; [2]", "result": 58, "unit": "%"}
    ]},
    {"smiles": "COc1ccc(Cc2c(C)[nH]c(NC/C=C\\COc3cccc(CN4CCCCC4)c3)nc2=O)cc1", "note": "[Ex. 17, 5-(p-methoxybenzyl)-6-methyl-2-[4-<3-(1-piperidino-methyl)-phenoxy>-cis-2-butenylamino]-4-(1H)-pyrimidone]", "values": [
      {"measurement": "inhibition in vivo at 30 mg/kg", "setting": "Ethanol-Induced Ulcer; [2]", "result": 78, "unit": "%"}
    ]},
    {"smiles": "CCCc1[nH]c(NC/C=C\\COc2cccc(CN3CCCCC3)c2)nc(=O)c1Cc1ccc2c(c1)OCO2", "note": "[Ex. 18]", "values": [
      {"measurement": "inhibition in vivo at 30 mg/kg", "setting": "Ethanol-Induced Ulcer; [2]", "result": 45, "unit": "%"}
    ]}
  ]
}
